Measurements from patent US10136642B2, “Composition of peracetic acid and at least one organic fungicide for the control and/or the treatment of diseases associated with the presence of pathogens, and method, use and kit involving said composition” (priority 2015, dated 2018).
Counter-ions that a name gives are not always drawn.

Assays:
Erwinia amylovora = experiment: Example 5 in vitro agar well inhibition of Erwinia amylovora; format: cell-based; details: LBA plates, 25° C., 72 hours; for bacterial inhibition zone (diameter): 1 cm center well
Description: Virgin Luria-Bertani agar (LBA) plates were inoculated in triplicate each with 1 mL of concentrated Erwinia amylovora suspension by aseptically spreading the bacteria uniformly onto the agar surfaces. A center well 1 cm in diameter was punched into the agar of each plate. Test products were added dropwise into each of these center wells until the liquid level just reached the agar surface (normally 5-7 drops were required). Plates were incubated at 25° C. for 72 hours then observed for evidence of bacterial growth inhibition.
Treatment List • 1. NEO-BOOST at 3.6 g/L. • 2. FireLine® [oxytetracycline hydrochloride 17% w/w] at 1.2 g/L • 3. FireWall® [streptomycin sulfate 17% w/w] at 0.6 g/L • 4. FireLine® at 1.2 g/L+FireWall® at 0.6 g/L • 5. NEO-BOOST at 3.6 g/L+FireLine® at 1.2 g/L • 6. NEO-BOOST at 3.6 g/L+FireWall® at 0.6 g/L • 7. NEO-BOOST at 3.6 g/L+FireLine® at 1.2 g/L+FireWall® at 0.6 g/L 8. Water.

[1] = Example 4 HPLC compatibility: degradation of azoxystrobin by NEO-BOOST 18/18; format: physicochemical; details: NEO-BOOST 18/18 at 3.6 g/L combined with 0.5 g/L azoxystrobin as Quadris
Description: NEO-BOOST 18/18 at 3.6 g/L was combined with 0.5 g/L azoxystrobin in the form of Quadris®. In addition, several controls were prepared consisting of respectively: 0.5 g/L azoxystrobin in the form of Quadris®, and NEO-BOOST 18/18 at 3.6 g/L. All of the above were then converted or rendered into a form that could be analyzed by high-performance liquid chromatography (HPLC). The HPLC column was first calibrated with the reference standard azoxystrobin and then the samples were injected into the column at predetermined intervals to see whether the Quadris® was degraded at all by the NEO-BOOST 18/18.

[2] = Example 8 amount of peracetic acid in solution over time (NEO-PURE Liquid with/without Quadris); format: physicochemical; details: diluted NEO-PURE Liquid
Description: Another liquid organic formulation based on pre-formed peracetic acid, called NEO-PURE™ Liquid, was formulated to study its compatibility with single-site fungicides such as azoles and strobilurins.
The above formulation contains a minimum of 5% w/w active peracetic acid and 20% w/w hydrogen peroxide.

Row | SMILES | bacterial inhibition zone (diameter) (Erwinia amylovora) | depth of inhibition through the bacterial lawn to the agar surface (Erwinia amylovora) | degradation of azoxystrobin by NEO-BOOST (HPLC) [1] | decomposition of peracetic acid by the presence of azoxystrobin over time [2]
1 | [H]/N=C(/N)N[C@H]1[C@H](O)[C@@H](O)[C@H](O[C@@H]2O[C@@H](C)[C@](O)(C=O)[C@H]2O[C@@H]2O[C@@H](CO)[C@H](O)[C@@H](O)[C@@H]2NC)[C@@H](N/C(N)=N\[H])[C@@H]1O [streptomycin, streptomycin sulfate] | about 3 cm | penetrated all the way down to the agar surface |  | 
2 | CN(C)[C@@H]1C(=O)C(C(N)=O)=C(O)[C@@]2(O)C(=O)C3=C(O)c4c(O)cccc4[C@@](C)(O)[C@H]3[C@H](O)[C@@H]12.Cl [Oxytetracycline, oxytetracycline hydrochloride] | about 3 cm | penetrated all the way down to the agar surface |  | 
3 | CO/C=C(/C(=O)OC)c1ccccc1Oc1cc(Oc2ccccc2C#N)ncn1 [azoxystrobin, methyl (E)-2-{2-[6-(2-cyanophenoxy)pyrimidin-4-yloxy]phenyl}-3-methoxyacrylate] |  |  | did not degrade azoxystrobin at all | not decomposed
